Residues, ends and D or L forms follow the SMILES beside them.
What was measured:
[1] = system: mouse renal ischemia reperfusion; assay: Mice renal failure test (mouse renal ischemia reperfusion), mortality; format: in vivo; conditions: score = animals died - animals in group
Method: Dipeptides are tested and compared with PBS (control) in a double blind animal study for a dipeptide's relative ability to aid recovery in a mouse renal ischemia reperfusion or mouse renal failure test. Under inhalation anesthesia, the left kidney with its artery and vein is isolated and occluded for 25 minutes using a microvascular clamp. During surgery, animals are placed on a heating path to maintain body temperature at 37°C. Five minutes before placing the clamp, and 5 minutes before releasing the clamp, dipeptide, dissolved in 0.1 mL of sterile saline, is administered intravenously. After reperfusion of the left kidney the right kidney is removed. Kidney function is assessed by measuring blood urea nitrogen before clamping, and at 2, 24, and 72 hours after reperfusion, by determining mRNA levels for cytokine expression, and such.
In short, in this test, the mice are anesthetized, and one kidney from each mouse is removed. The other kidney is tied off for 25 minutes, and the ischemia levels in the kidney are allowed to increase. Both before and/or after tying off, GLN-containing dipeptide is administered to 8 to 10 different mice per group (dosages vary per group from for example 0.7, 3, 7, 30 and 70 mg dipeptide / kg body mass intravenously). The mortality of the mice is determined for each oligopeptide as well as for example the BUN or creatinine concentration at two hours, 24 hours and 72 hours. Two dipeptides AQ and LQ are for example tested in a dose-response manner in the mice renal failure test. Dipeptides are tested at dosages of 0.7, 3, 7, 30 and 70 mg/kg body weight given intravenously.

[2] = system: Hemorrhagic shock; assay: Rat hemorrhagic shock study, recovery of mean arterial pressure; format: in vivo, Rats; conditions: AQ intravenously 0.7 to 70 mg/kg with Ringer's lactate during resuscitation; compared with the LR group
Method: (§1) Methods: Rats are randomly assigned to groups. Under isoflurane anesthesia, the femoral artery and vein are cannulated. Hemorrhagic shock is induced by withdrawing blood through the arterial cannula until the mean arterial pressure (MAP) is 25-30 mm Hg and maintained at the level for 30 minutes with further withdrawals. Resuscitation is carried out by giving 21 mL/kg Ringer's lactate (LR) with or without the administration of AQ (intravenously at ranges from 0.7 to 70 mg/kg) and returning the shed blood. Controls are normal (anesthesia only), sham (surgical preparation), and shock (preparation and shock). Rats (n = 80, 10 per group) are killed 30 minutes after completion of resuscitation. Liver samples are collected, and total RNA is isolated for reverse transcription-polymerase chain reaction analysis of mRNA (TNF-a). […] Increased expression of liver mRNA for TNF-alpha is seen after hemorrhagic shock and resuscitation.

[3] = system: TNF-alpha; assay: Rat hemorrhagic shock study, liver mRNA by reverse transcription-polymerase chain reaction; format: in vivo, Rats; conditions: AQ intravenously 0.7 to 70 mg/kg during resuscitation; liver samples 30 minutes after completion of resuscitation
Method: as §1

For `C[C@H](N)C(=O)N[C@@H](CCC(N)=O)C(=O)O` [AQ, alanyl-glutamine] (H-Ala-Gln-OH), the “Mortality in mice renal failure experiment 24h” value ([1]; 0.7 mg/kg intravenously) was 0-9, the “Mortality in mice renal failure experiment 72h” value ([1]; 0.7 mg/kg intravenously) was 2-9 and the “Mortality in mice renal failure experiment 24h” value ([1]; 3.0 mg/kg intravenously) was 0-10. For the same compound, the “Mortality in mice renal failure experiment 72h” value ([1]; 3.0 mg/kg intravenously) was 1-9, the “Mortality in mice renal failure experiment 24h” value ([1]; 7.0 mg/kg intravenously) was 0-10 and the “Mortality in mice renal failure experiment 72h” value ([1]; 7.0 mg/kg intravenously) was 0-9. The “Mortality in mice renal failure experiment 24h” value ([1]; 30.0 mg/kg intravenously) was 0-8, the “Mortality in mice renal failure experiment 72h” value ([1]; 30.0 mg/kg intravenously) was 1-10 and the “Mortality in mice renal failure experiment 24h” value ([1]; 70.0 mg/kg intravenously) was 0-9. For the same compound, the “Mortality in mice renal failure experiment 72h” value ([1]; 70.0 mg/kg intravenously) was 1-9, the MAP recovery [2] was “recovers more quickly” and the “expression of liver mRNA for TNF-alpha” value [3] was “reduces mRNA expression for TNF-alpha”.
In the case of `CC(C)C[C@H](N)C(=O)N[C@@H](CCC(N)=O)C(=O)O` [LQ, leucyl-glutamine] (H-Leu-Gln-OH), the “Mortality in mice renal failure experiment 24h” value ([1]; 0.7 mg/kg intravenously) was 0-9, the “Mortality in mice renal failure experiment 72h” value ([1]; 0.7 mg/kg intravenously) was 2-9 and the “Mortality in mice renal failure experiment 24h” value ([1]; 3.0 mg/kg intravenously) was 0-10. For the same compound, the “Mortality in mice renal failure experiment 72h” value ([1]; 3.0 mg/kg intravenously) was 1-9, the “Mortality in mice renal failure experiment 24h” value ([1]; 7.0 mg/kg intravenously) was 1-10 and the “Mortality in mice renal failure experiment 72h” value ([1]; 7.0 mg/kg intravenously) was 1-10. The “Mortality in mice renal failure experiment 24h” value ([1]; 30.0 mg/kg intravenously) was 0-10, the “Mortality in mice renal failure experiment 72h” value ([1]; 30.0 mg/kg intravenously) was 0-9 and the “Mortality in mice renal failure experiment 24h” value ([1]; 70.0 mg/kg intravenously) was 0-8. The “Mortality in mice renal failure experiment 72h” value ([1]; 70.0 mg/kg intravenously) was 3-9.
